Key:
[1] = Oral maximum tolerated dose; details: in vivo, 300 mg/kg
Rat pharmacokinetics = format: in vivo, male Sprague Dawley rats; details: male Sprague Dawley rat, intravenous at 1 mg/kg
Protocol: (100 µl) was then removed from both acceptor and donor compartments and mixed with acetonitrile (80 µl) containing an internal standard. The samples were centrifuged (10 min, 5 °C, 3270 g) to sediment precipitated protein and sealed prior to UPLC-MS/MS analysis using a Quattro Premier XE (Waters Corp, USA). Pe was calculated as shown in the below equation:
Pe (nm/sec) = 107 x - In [1 - CA (t) / Cequi]
CA(t) = peak area of compound present in acceptor well at time t = 18000 sec Cequi = [CD(t) * VD + CA(t) * VA] / (VD + VA)
VA = acceptor well volume
CD(t) = peak area of compound present in donor well at time t = 18000 sec Recovery of compound from donor and acceptor wells was calculated and data was only accepted when recovery exceeded 70 %. […]
Compound was dosed as a bolus solution intravenously (12) at 3mg free base/kg (dose volume: 5 mL/kg; dose vehicle: 10% DMSO, 90% saline) to female NMRI mice (n=3) or dosed orally (12 and 13) by gavage as a solution at 10 mg free base/kg (dose volume: 10mL/kg; Dose vehicle: 5 or 10% DMSO; 40% PEG400; 50 or 55% distilled water) to female NMRI mice (n=3/dose level). […] The level of each compound in mouse blood was determined by UPLC-MS/MS as previously reported.9 Pharmacokinetic parameters were derived from the blood concentration time curve using PKsolutions software v 2.0 (Summit Research Services, USA). […]

[2] = Parallel artificial membrane permeability assay (PAMPA); format: in vitro ADME; details: relative to the earlier lead
[3] = Intrinsic clearance in rat hepatocytes; format: in vitro ADME

O=C(NCCN1CCCC1)c1cc(NCCCN2CCOCC2)nc2ccc(F)cc12 [Compound 25, 6-Fluoro-2-((3-morpholinopropyl)amino)-N-(2-(pyrrolidin-1-yl)ethyl)quinoline-4-carboxamide]
MTD at 4 days [1]: > 300 mg/kg

O=C(NCCN1CCCC1)c1cc(-c2ccc(CN3CCOCC3)cc2F)nc2ccc(F)cc12 [Compound 41]
Clb (Rat pharmacokinetics): 32 mL min^–1 kg^–1

O=C(NCCN1CCCC1)c1cc(NCCC2CCOCC2)nc2ccc(Cl)cc12 [Compound 30, 6-Chloro-N-(2-(pyrrolidin-1-yl)ethyl)-2-((2-(tetrahydro-2H-pyran-4-yl)ethyl)amino)quinoline-4-carboxamide]
increase in permeability [2]: more than 20 fold
intrinsic clearance in rat hepatocytes (Cli) [3]: 3 mL min^–1 g^–1
